Measurements published in US20250064799A1, “ORAL FORMULATIONS OF LEVOSIMENDAN FOR TREATING PULMONARY HYPERTENSION WITH HEART FAILURE WITH PRESERVED EJECTION FRACTION” (Tenax Therapeutics, Inc., priority 2021, published 2025).
“And” between values parts separate entries of the source, which are not always exact repeats. Equal entries are not always repeated.

Test system: patients with PH-HFpEF
Assay: TNX-LVO-05 open-label extension, weekly 24-hour I.V. levosimendan: 6MWT and HR
Assay type: in vivo, human
Parameters: TNX-LVO-05 (WK 24/48) 6MWT: unit not given beside the values
Conditions: individual patients, week 24/48
Source text: PH-HFpEF is a progressive, fatal disease for which there are no approved therapies. All patients that the 6-week parent TNX-LVO-04 study (also referred to as the initial Help Study) underwent assessments of safety and efficacy in a double-blind randomized protocol. […] For these reasons, all participating patients were allowed to enter an open-label extension study (also referred to as TNX-LVO-05), to provide ongoing levosimendan therapy for two additional years.
The efficacy of the once weekly levosimendan regimen is supported by an active metabolite with an extended half-life of 70-80 hours. The metabolite peaks approximately two days after completing the weekly dose, declining through the remainder of the week. Data from the parent TNX-LVO-04 study indicate patients' response to therapy peaks early in the week, followed by a decline in keeping with exposure to the active metabolite. Patients that entered TNX-LVO-05 were required to undergo the insertion of a port-a-cath, learn how to self-administer the levosimendan infusion through a port-a-cath at home, and weekly administer IV levosimendan through their port-a-cath for 24 hours. It is important to note that patients who entered TNX-LVO-05 have chosen to continue their 24-hour weekly levosimendan dose regimen, acknowledging that patients recognize the benefits of the drug.

C[C@@H]1CC(=O)NN=C1c1ccc(NN=C(C#N)C#N)cc1 [levosimendan]
TNX-LVO-05 (WK 24/48) 6MWT: 310 and 180 and 312 and 255 and 347 and 393 and 313 and 91 and 274 and 213 and 225 and 174 and 590
TNX-LVO-05 (WK 24/48) HR: 62 (3×) and 64 and 85 (2×) and 70 and 69 and 74 and 58 and 73 and 82 and 75 and 87 and 65 and 78 and 77 and 91
